Test results from US20250236607A1, “CYCLIN-DEPENDENT KINASE 9 (CDK9) DEGRADERS AND METHODS OF USING THEREOF” (OHIO STATE INNOVATION FOUNDATION, priority 2022, published 2025).
Converted amounts (≈) assume the structure as drawn. Where two headings read alike, the source gives them in different places.

Assays:
[1] = test system: MOLM13 cells; assay: Cytotoxicity against MOLM13 cells; assay type: cell-based; details: MOLM13 cells, read-out: IC50
Description: (§1) Through amide coupling using I-ethyl-3-carbodiimide hydrochloride (EDC.HCl), the alkynyl derivatives of 4.16, 4.29 and 4.30 were synthesized. Using these VIP152-derivatives, degraders 4.31, 4.33 and 4.34 were synthesized using click chemistry. Degrader 4.32 was also synthesized using amide coupling conditions with (1-[Bis([…])methylene]-1H-1,2,3-triazolo[4,5-b]pyridinium 3-oxide hexafluorophosphate (HATU) and the carboxylic acid 4.28. Scheme 7 illustrates the synthesis of this initial series. The series was evaluated for cytotoxicity against MOLM13 cells (IC50) and for their CDK9 degradation potency (DC50). The results are provided in Table 3.

[2] = biological target: T1, CDK9 (Homo sapiens, UniProt P50750+Q96SW2); assay: CDK9 degradation potency (DC50) of VIP152-based degraders; assay type: cell-based; details: VIP152-based series
T1 construct: endogenous in cells
T1 sequence (P50750 whole entry): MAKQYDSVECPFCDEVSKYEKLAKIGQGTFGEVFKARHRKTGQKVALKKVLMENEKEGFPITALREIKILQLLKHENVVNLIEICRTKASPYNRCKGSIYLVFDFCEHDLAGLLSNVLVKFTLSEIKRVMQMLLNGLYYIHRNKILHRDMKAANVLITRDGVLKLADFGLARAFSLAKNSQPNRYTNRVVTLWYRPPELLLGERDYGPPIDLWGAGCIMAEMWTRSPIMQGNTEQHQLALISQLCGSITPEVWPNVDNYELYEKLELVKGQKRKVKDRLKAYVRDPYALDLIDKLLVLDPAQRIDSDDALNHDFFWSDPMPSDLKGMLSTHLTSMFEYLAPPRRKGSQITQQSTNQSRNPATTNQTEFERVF
T1 sequence (O60563 whole entry partner): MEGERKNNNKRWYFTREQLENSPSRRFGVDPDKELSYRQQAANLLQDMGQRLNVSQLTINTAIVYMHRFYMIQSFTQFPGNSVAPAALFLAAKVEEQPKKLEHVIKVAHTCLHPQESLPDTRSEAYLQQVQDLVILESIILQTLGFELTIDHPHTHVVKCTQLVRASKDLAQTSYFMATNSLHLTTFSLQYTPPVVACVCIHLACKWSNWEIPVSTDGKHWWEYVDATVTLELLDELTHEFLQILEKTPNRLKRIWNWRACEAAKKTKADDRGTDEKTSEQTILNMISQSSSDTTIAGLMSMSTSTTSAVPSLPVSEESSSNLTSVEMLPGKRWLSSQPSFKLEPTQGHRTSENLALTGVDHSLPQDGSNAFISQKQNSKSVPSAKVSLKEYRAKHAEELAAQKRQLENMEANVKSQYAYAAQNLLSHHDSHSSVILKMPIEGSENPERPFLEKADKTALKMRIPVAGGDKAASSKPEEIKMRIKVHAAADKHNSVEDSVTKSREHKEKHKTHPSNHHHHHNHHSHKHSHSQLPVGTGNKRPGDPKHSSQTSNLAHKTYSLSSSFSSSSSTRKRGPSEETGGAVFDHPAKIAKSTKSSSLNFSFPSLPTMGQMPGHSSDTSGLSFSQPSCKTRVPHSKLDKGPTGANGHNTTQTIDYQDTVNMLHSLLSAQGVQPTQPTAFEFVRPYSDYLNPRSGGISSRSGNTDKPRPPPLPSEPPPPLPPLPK
T1 sequence (Q96SW2 whole entry): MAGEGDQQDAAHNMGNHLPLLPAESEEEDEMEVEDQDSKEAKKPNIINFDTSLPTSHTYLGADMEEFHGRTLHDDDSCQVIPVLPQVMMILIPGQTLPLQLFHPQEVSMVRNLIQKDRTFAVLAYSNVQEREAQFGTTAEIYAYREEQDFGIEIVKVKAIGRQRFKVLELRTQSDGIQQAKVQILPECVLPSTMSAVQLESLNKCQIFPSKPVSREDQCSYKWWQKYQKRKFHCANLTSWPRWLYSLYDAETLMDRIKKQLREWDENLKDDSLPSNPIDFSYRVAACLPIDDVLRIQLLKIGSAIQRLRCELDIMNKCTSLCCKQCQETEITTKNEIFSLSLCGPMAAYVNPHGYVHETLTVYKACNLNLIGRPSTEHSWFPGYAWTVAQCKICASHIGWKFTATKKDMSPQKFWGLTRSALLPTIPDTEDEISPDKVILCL
T1 sequence (Q16531 whole entry partner): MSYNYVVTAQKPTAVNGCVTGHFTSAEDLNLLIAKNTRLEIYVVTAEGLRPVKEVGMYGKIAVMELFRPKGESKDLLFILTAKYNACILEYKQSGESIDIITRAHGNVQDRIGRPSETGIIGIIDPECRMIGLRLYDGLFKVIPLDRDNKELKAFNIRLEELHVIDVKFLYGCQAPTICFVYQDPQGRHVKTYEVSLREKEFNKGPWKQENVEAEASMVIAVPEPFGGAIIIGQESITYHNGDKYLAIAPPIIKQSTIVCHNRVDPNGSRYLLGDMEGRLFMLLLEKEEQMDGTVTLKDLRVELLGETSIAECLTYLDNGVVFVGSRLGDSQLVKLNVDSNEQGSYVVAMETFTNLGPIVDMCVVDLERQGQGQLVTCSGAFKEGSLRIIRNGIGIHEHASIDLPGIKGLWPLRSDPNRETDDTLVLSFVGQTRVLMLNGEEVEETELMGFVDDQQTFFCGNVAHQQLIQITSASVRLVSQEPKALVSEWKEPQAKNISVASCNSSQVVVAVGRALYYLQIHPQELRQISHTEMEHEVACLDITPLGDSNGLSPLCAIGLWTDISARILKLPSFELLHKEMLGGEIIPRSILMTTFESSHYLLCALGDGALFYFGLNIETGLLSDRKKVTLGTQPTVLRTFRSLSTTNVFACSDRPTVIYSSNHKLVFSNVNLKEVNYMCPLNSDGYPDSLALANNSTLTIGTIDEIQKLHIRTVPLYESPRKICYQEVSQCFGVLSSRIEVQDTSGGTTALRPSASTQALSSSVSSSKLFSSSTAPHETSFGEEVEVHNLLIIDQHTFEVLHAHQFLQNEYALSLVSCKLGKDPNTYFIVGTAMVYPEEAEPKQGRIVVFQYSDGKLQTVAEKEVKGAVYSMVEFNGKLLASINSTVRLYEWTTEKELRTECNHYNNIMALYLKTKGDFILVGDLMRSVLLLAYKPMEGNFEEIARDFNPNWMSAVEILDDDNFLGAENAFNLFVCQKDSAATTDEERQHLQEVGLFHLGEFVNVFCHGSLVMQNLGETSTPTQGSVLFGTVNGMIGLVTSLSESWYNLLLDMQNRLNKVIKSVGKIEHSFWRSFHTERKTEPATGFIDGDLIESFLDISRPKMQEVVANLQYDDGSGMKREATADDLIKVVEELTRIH
Description: as §1

[3] = Chromatographic log D determination (log k′80); assay type: physicochemical; details: chromatographic log D, PLRP-S column, pH 7.72
Procedure: Chromatographic Log D Determination. Test samples were prepared from 10 mM stock solutions in DMSO, to make 122 μM solutions in acetonitrile. Retention times were determined on a Shimadzu High Performance Liquid Chromatography (HPLC) system with Agilent PLRP-S column, 100 Å, 5 um particle size, 50×4.6 mm (part no.: PL1512-1500) with 1 mL/min flow rate. A 65 mM aqueous solution of ammonium acetate was prepared in water and diluted with acetonitrile to give 0.1% ammonium acetate 20:80 acetonitrile solution with pH 7.72. Eluents were detected with UV spectrophotometry at 337 nm. As a standard set, the retention times of β-estradiol, nifedipine, quinoline, phenol and 2-nitrophenol were determined (log k′80) and the dead time was extrapolated based on the reported log k′80 values originally reported by Caron et. al (log k′80*). The average value of the dead time for the standard set was 0.3001 minutes. Therefore, for consistency, 0.3 minutes was used as the dead time for all test samples. Experiments were performed in triplicate with a maximum percent standard deviation of 6.85%.

[4] = Kinetic solubility assay; details: kinetic solubility, PBS pH 7.4; for solubility at 1.5 h: phosphate buffered saline, pH 7.4, aqueous buffer, kinetic from dmso stock, Solubility (μM)
[5] = Homo sapiens, MOLM-13, cytotoxicity

Molecule | IC50 ([1]; cytotoxicity) | DC50 [2] | logk′80 [3] | Solubility [4] | IC50 [1, 5] | solubility at 1.5 h [4]
COc1cc(F)ccc1-c1cc(Nc2cc(CS(C)(=O)=NC(=O)CN3CCC(c4cn(C5CN(c6cccc7c6C(=O)N(C6CCC(=O)NC6=O)C7=O)C5)nn4)CC3)ccn2)ncc1F (stereo not drawn) [Compound 4.60, 2-(4-(1-(1-(2-(2,6-dioxopiperidin-3-yl)-1,3-dioxoisoindolin-4-yl)azetidin-3-yl)-1H-1,2,3-triazol-4-yl)piperidin-1-yl)-N-(((2-((5-fluoro-4-(4-fluoro-2-methoxyphenyl)pyridin-2-yl)amino)pyridin-4-yl)methyl)(methyl)(oxo)-16-sulfaneylidene)acetamide] | 1910 nM | 1660 nM | 0.16 | 4.1 µM (≈ 3.72 µg/mL) |  | 
COc1cc(F)ccc1-c1cc(Nc2cc(CS(C)(=O)=NC(=O)CN3CCC(COc4cccc5c4C(=O)N(C4CCC(=O)NC4=O)C5=O)CC3)ccn2)ncc1F (stereo not drawn) [Compound 4.79, 2-[4-({[2-(2,6-dioxopiperidin-3-yl)-1,3-dioxo-2,3-dihydro-1H-isoindol-4-yl]oxy}methyl)piperidin-1-yl]-N-{[(2-{[5˜fluoro-4-(4-fluoro-2-methoxyphenyl)pyridin-2-yl]amino}pyridin-4-yl)methyl](methyl)oxo-26-sulfanylidene}acetamide] |  | 360 nM | 0.20 |  | 190 nM | 3.1 µM (≈ 2.53 µg/mL)
COc1cc(F)ccc1-c1cc(Nc2cc(CS(C)(=O)=NC(=O)CN3CCC(c4cn(CC5CCN(c6cccc7c6C(=O)N(C6CCC(=O)NC6=O)C7=O)CC5)nn4)CC3)ccn2)ncc1F (stereo not drawn) [Compound 4.76, 2-{[4-[1-({1-[2-(2,6-dioxopiperidin-3-yl)-1,3-dioxo-2,3-dihydro-1H-isoindol-4-yl]piperidin-4-yl}methyl)-1H-1,2,3-triazol-4-yl]piperidin-1-yl}-N-{[2-{[5-fluoro-4-(4-fluoro-2-methoxyphenyl)pyridin-2-yl]amino}pyridin-4-yl)methyl](methyl)oxoλ^6-sulfanylidene}acetamide] | 300 nM | 240 nM | 0.19 | 4.7 µM (≈ 4.47 µg/mL) |  | 
COc1cc(F)ccc1-c1cc(Nc2cc(CS(C)(=O)=NC(=O)CCC(=O)N3CC(N4CCC(Cn5cc(COc6cccc7c6C(=O)N(C6CCC(=O)NC6=O)C7=O)nn5)CC4)C3)ccn2)ncc1F (stereo not drawn) [Compound 4.91] |  | 260 nM | 0.09 |  | 590 nM | 3.8 µM (≈ 3.78 µg/mL)
COc1cc(F)ccc1-c1cc(Nc2cc(CS(C)(=O)=NC(=O)C3CCCN(Cc4cn(CC(=O)N5CCC(C#Cc6cccc7c6C(=O)N(C6CCC(=O)NC6=O)C7=O)CC5)nn4)C3)ccn2)ncc1F (stereo not drawn) [Compound 4.75, 1-({1-[2-(4-{2-[2-(2,6-dioxopiperidin-3-yl)-1,3-dioxo-2,3-dihydro-1H-isoindol-4-yl]ethynyl}piperidin-1-yl)-2-oxoethyl]-1H-1,2,3-triazol-4-yl}methyl)-N-{[1 (2-{[5-fluoro-4-(4-fluoro-2-methoxyphenyl)pyridin-2-yl]amino}pyridin-4-yl)methyl](methyl)oxo-λ^6-sulfanylidene}piperidine-3-carboxamide] |  | 1620 nM | 0.18 |  | 1480 nM | 4.8 µM (≈ 4.81 µg/mL)
COc1cc(F)ccc1-c1cc(Nc2cc(CS(C)(=O)=NC(=O)CN3CCN(Cc4cn(CCCOc5cccc6c5C(=O)N(C5CCC(=O)NC5=O)C6=O)nn4)CC3)ccn2)ncc1F (stereo not drawn) [Compound 4.39, 2-(4-((1-(3-((2-(2,6-dioxopiperidin-3-yl)-1,3-dioxoisoindolin-4-yl)oxy)propyl)-1H-1,2,3-triazol-4-yl)methyl)piperazin-1-yl)-N-(((2-((5-fluoro-4-(4-fluoro-2-methoxyphenyl)pyridin-2-yl)amino)pyridin-4-yl)methyl)(methyl)(oxo)-16-sulfaneylidene)acetamide] |  | 640 nM | 0.10 |  | 830 nM | 26.5 µM (≈ 24.5 µg/mL)
COc1cc(F)ccc1-c1cc(Nc2cc(CS(C)(=O)=NC(=O)CCc3cn(CC4CCN(C5CN(C(=O)CNc6cccc7c6C(=O)N(C6CCC(=O)NC6=O)C7=O)C5)CC4)nn3)ccn2)ncc1F (stereo not drawn) [Compound 4.89, 3-(1-((1-(1-((2-(2,6-dioxopiperidin-3-yl)-1,3-dioxoisoindolin-4-yl)glycyl)azetidin-3-yl)piperidin-4-yl)methyl)-1H-1,2,3-triazol-4-yl)-N-(((2-((5-fluoro-4-(4-fluoro-2-methoxyphenyl)pyridin-2-yl)amino)pyridin-4-yl)methyl)(methyl) (oxo)-26-sulfaneylidene) propanamide] |  | 80 nM | 0.09 |  | 170 nM | 1.8 µM (≈ 1.79 µg/mL)
1-((1-(1-((2-(2,6-dioxopiperidin-3-yl)-1,3-dioxoisoindolin-4-yl)glycyl)azetidin-3-yl)-1H-1,2, 3-triazol-4-yl)methyl)-N-(((2-((5-fluoro˜4-(4-fluoro-2-methoxyphenyl)pyridin-2-yl)amino)pyridin-4-yl)methyl)(methyl)(oxo)-16-sulfaneylidene)piperidine-3-carboxamide [Compound 4.63] | 550 nM | 460 nM | 0.19 | 10.8 µM |  | 
COc1cc(F)ccc1-c1cc(Nc2cc(CS(C)(=O)=NC(=O)CN3CCC(c4cn(C5CN(C(=O)CNc6cccc7c6C(=O)N(C6CCC(=O)NC6=O)C7=O)C5)nn4)CC3)ccn2)ncc1F (stereo not drawn) [Compound 4.59, 2-(4-(1-(1-((2-(2,6-dioxopiperidin-3-yl)-1,3-dioxoisoindolin-4-yl)glycyl)azetidin-3-yl)-1H-1,2,3-triazol-4-yl)piperidin-1-yl)-N-(((2-((5-fluoro-4-(4-fluoro-2-methoxyphenyl)pyridin-2-yl)amino)pyridin-4-yl)methyl)(methyl)(oxo)-16-sulfaneylidene)acetamide] | 210 nM | 110 nM | 0.09 | 5.0 µM (≈ 4.83 µg/mL) |  | 
COc1cc(F)ccc1-c1cc(Nc2cc(CS(C)(=O)=NC(=O)C3CCCN(Cc4cn(CC(=O)N5CCN(CC#Cc6cccc7c6C(=O)N(C6CCC(=O)NC6=O)C7=O)CC5)nn4)C3)ccn2)ncc1F (stereo not drawn) [Compound 4.64, 1-((1-(2-(4-(3-(2-(2,6-dioxopiperidin-3-yl)-1,3-dioxoisoindolin-4-yl)prop-2-yl-1-yl)piperazin-1-yl)-2-oxoethyl)-1H-1,2,3-triazol-4-yl)methyl)-N-(((2-((5-fluoro-4-(4-fluoro-2-methoxyphenyl)pyridin-2-yl)amino)pyridin-4-yl)methyl)(methyl)(oxo)-16-sulfaneylidene)piperidine-3-carboxamide] | 850 nM | 780 nM | 0.14 | 33.0 µM (≈ 33.6 µg/mL) |  | 
COc1cc(F)ccc1-c1cc(Nc2cc(CS(C)(=O)=NC(=O)CN3CCN(Cc4cn(CC(=O)N5CCN(CC#Cc6cccc7c6C(=O)N(C6CCC(=O)NC6=O)C7=O)CC5)nn4)CC3)ccn2)ncc1F (stereo not drawn) [Compound 4.51, 2-(4-((1-(2-(4-(3-(2-(2,6-dioxopiperidin-3-yl)-1,3-dioxoisoindolin-4-yl)prop-2-yn-1-yl)piperazin-1-yl)-2-oxoethyl)-1H-1,2,3-triazol-4-yl)methyl)piperazin-1-yl)-N-(((2-((5-fluoro-4-(4-fluoro-2-methoxyphenyl)pyridin-2-yl)amino)pyridin-4-yl)methyl)(methyl)(oxo)-16-sulfaneylidene)acetamide] | 1540 nM | 370 nM | 0.09 | 14.8 µM (≈ 15.3 µg/mL) |  | 
COc1cc(F)ccc1-c1cc(Nc2cc(CS(C)(=O)=NC(=O)CCC(=O)N3CC(N4CCC(Cn5cc(CNC(=O)CNc6cccc7c6C(=O)N(C6CCC(=O)NC6=O)C7=O)nn5)CC4)C3)ccn2)ncc1F (stereo not drawn) [Compound 4.90, 4-{3-[4-({4-[(2˜ {[2˜ (2,6-dioxopiperidin-3-yl)-1,3-dioxo-2,3-dihydro-1H-isoindol-4-yl]amino}acetamido)methyl]-1H-1,2,3-triazol-1-yl}methyl)piperidin-1-yl]azetidin-1-yl}-N-{[(2-{[5-fluoro-4-(4-fluoro-2-methoxyphenyl)pyridin-2-yl]amino}pyridin-4-yl)methyl](methyl)oxo-λ^6-sulfanylidene}-4-oxobutanamide] |  | 900 nM | 0.07 |  | 1380 nM | 8.3 µM (≈ 8.72 µg/mL)
